The values that follow are results of earlier work, collected in US7446222B2, “Phenyl compounds” (Glaxo Group Limited, priority 2002, dated 2008).

The target in data set [1] is T1, human EP1 prostanoid receptor (Homo sapiens, UniProt P34995).
T1 sequence (P34995 1-402): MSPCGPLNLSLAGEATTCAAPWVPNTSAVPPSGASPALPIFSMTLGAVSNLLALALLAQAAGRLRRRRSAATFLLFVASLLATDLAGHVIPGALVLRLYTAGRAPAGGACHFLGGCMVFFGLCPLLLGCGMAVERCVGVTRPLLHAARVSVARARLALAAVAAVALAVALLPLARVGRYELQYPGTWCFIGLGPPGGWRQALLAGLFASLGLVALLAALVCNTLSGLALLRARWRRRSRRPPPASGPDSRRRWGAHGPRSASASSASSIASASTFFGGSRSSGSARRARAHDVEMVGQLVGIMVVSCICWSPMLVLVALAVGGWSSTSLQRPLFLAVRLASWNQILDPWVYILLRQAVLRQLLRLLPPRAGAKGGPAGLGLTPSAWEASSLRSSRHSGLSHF
The settings on record: human EP1 prostanoid receptor ligand.

Data set [2] relates to rat model of chronic constriction injury.
Data set [3] concerns rodent model of post-operative pain.

On to `O=C(O)c1ccc(-c2ccccc2-c2ccccc2OCc2ccccc2)cc1` [2-benzyloxy[1,1′;2′,1″]terphenyl-4″-carboxylic acid], for which, in data set [1], the “potency compared with the comparable 2,3-diarylthiophene compound” value is “less potent” and the “selectivity compared with the comparable 2,3-diarylthiophene compound” value is listed as “less selective”.
For `Cc1cc(Cl)ccc1S(=O)(=O)NC[C@H]1C2CCC(CC2)[C@@H]1/C=C\CCCC(=O)O` [ONO-8711], the “effect on hyperalgesia and allodynia” value in data set [2] is “reduces hyperalgesia and allodynia”. Further, the “effect on mechanical hyperalgesia” value in data set [3] is “inhibits mechanical hyperalgesia”.
